Source: patent US20190133980A1, “Compositions and methods for targeting and treating homologous recombination-deficient tumors” (YALE UNIVERSITY, priority 2016, published 2019)

Assays:
[1] = test system: wild-type or IDH1-R132H heterozygous astrocytes; test: Short-term growth delay assay, astrocytes; assay type: cell-based, Human; details: for sensitization of IDH1-mutant versus WT cells to single DNA damaging agent: FIG. 6A, single agents
Method: Cells were plated in 96-well black-walled plates (Costar) at a concentration of 2.5 k/well and allowed to adhere at room temperature for 60 minutes prior to return to the incubator. […] For synergy experiments, cells were replica-plated and drugs added in single wells at the indicated concentrations. At 96 hours after the addition of drugs, cells were washed in PBS, fixed in 70% ethanol, and stained with Hochst at 1 μg/mL. The plates were then imaged on a Cytation 3 automated imager (BioTek), and cells were counted using CellProfiler (cellprofiler.org/). Each experiment was performed three times and values from a representative experiment are reported as mean±SEM. For synergy experiments, experiments were analyzed for synergistic interactions using Combenefit (www.cruk.cam.ac.uk/research-groups/jodrell-group/combenefit).

[2] = test system: WT and R132H/+ HCT116 cells; test: Neutral comet assay, HCT116; assay type: cell-based, Human
Method: (§1) Neutral comet assays were performed per manufacturer's protocol (Trevigen). Briefly, cells were trypsinized, washed with PBS and suspended in LM Agarose (Trevigen). Neutral electrophosesis was conducted at 21V for 1 hour in the CometAssay Electrophoresis System (Trevigen). Data were collected with an EVOS FL microscope (Advanced Microscopy Group) and analyzed using AutoComet software (TriTek Corporation). For each experiment, three biological replicates each with >50 cells were measured, and reported values are mean±SEM.

[3] = test system: wild-type or IDH1-R132H heterozygous astrocytes; test: Long-term colony forming (clonogenic survival) assay, astrocytes; assay type: cell-based, Human; details: FIG. 2B
Method: (§2) Cells were counted and diluted in media containing various concentration of drug. They were then immediately seeded in 6-well plates in triplicate at 3-fold dilutions, ranging from 9000 to 37 cells per well. These plates were kept in the incubator for 10 to 14 days, following which they were washed in PBS, stained with Crystal Violet, and quantified. Each experiment was performed twice, and values reported are mean ±standard deviation.

[4] = test system: wild-type and IDH1-R132H heterozygous HCT116 cells; test: Short-term growth delay assay, HCT116; assay type: cell-based, Human
Method: Cells were plated in 96-well black-walled plates (Costar) at a concentration of 2.5 k/well and allowed to adhere at room temperature for 60 minutes prior to return to the incubator. For growth delay assays containing octyl-(R)-2HG, cells were cultured with indicated concentration for 10 days prior to plating. 24 hours later, the media was changed and indicated drugs dissolved in either DMSO or DMF (cisplatin only) were added in quadruplicate at varying concentrations. For synergy experiments, cells were replica-plated and drugs added in single wells at the indicated concentrations. At 96 hours after the addition of drugs, cells were washed in PBS, fixed in 70% ethanol, and stained with Hochst at 1 μg/mL. The plates were then imaged on a Cytation 3 automated imager (BioTek), and cells were counted using CellProfiler (cellprofiler.org/). Each experiment was performed three times and values from a representative experiment are reported as mean±SEM. For synergy experiments, experiments were analyzed for synergistic interactions using Combenefit (www.cruk.cam.ac.uk/research-groups/jodrell-group/combenefit).

[5] = test system: wild-type or IDH1-R132H heterozygous HCT116 cells; test: Long-term colony forming assay, HCT116; assay type: cell-based, Human; details: FIG. 5E; at 10 nM BMN-673
Method: as §2

[6] = test system: HCT116 IDH1-WT and -mutant tumors; test: In vivo BMN 673 efficacy study, subcutaneous flank xenografts; design: species or system nude mice; details: BMN-673 0.33 mg/kg oral gavage once daily for 21 days vs vehicle
Method: All animal experiments were performed in compliance with our institution's IACUC committee. Four week-old female athymic nu/nu mice were used for all in vivo xenograft studies. Mice were quarantined for at least 1 week before experimental manipulation. Human HCT116 cells (with and without IDH1 mutation) were implanted subcutaneously (3-5×10^6 cells in 0.1 cc PBS) in the right flank of nude mice. When tumors reached an average volume of approximately 100 mm^3, mice were randomized into various treatment groups (5-7 mice/group) in each study. Animals were not randomized, but were grouped based on tumor size such that tumors were roughly equivalent in size when treatment was begun. The investigator was not blinded throughout the experiment. Mice were visually observed daily and tumors were measured three times per week by calipers to determine tumor volume using the formula: […]
BMN 673 was solubilized in DMSO and diluted with PBS containing 10% dimethylacetamide (Sigma-Aldrich) and 6% Solutol (Sigma-Aldrich). […] Tumor tripling time was calculated as the time required for tumors to increase in volume threefold over baseline at the time of treatment initiation. P-values were determined by Mann-Whitney U test (Stata). Kaplan-Meier curves were generated with survival fraction determined by the number of mice alive with tumor volume smaller than three times the initial pre-treatment volume. […]

[7] = test system: homologous recombination (HR) in U2OS DR-GFP cells; test: U2OS DR-GFP chromosomal HR reporter assay; assay type: cell-based; details: for suppression of HR: after 10 days of culture in 300 μM octyl-(R)-2-hydroxyglutarate vs DMSO
Method: These reporter assays are carried out as previously described ([…] et al., Molecular cancer research: MCR 13, 1389-1397 (2015)). Briefly, after 10 days of culture in (2R)-Octyl-alpha-hydroxyglutarate (Cayman), 1×10^6 cells were transfected in triplicate with 4 μg pI-SceI using the Amaxa Nucleofector II and Nucleofection Kit V (Lonza) per manufacturer's protocol. 72 h after transfection, cells were analyzed for GFP expression using flow cytometry, and the data was analyzed using FlowJo software to calculate %GFP positive cells. Values reported are mean±SEM.

[8] = test system: IDH1-WT U2OS DR-GFP cells; test: Neutral comet assay, U2OS; assay type: cell-based; details: 24 h exposure to DMOG
Method: as §1

Molecule: COS(C)(=O)=O [MMS, Methyl methanesulfonate]
- sensitization of IDH1-mutant versus WT cells to single DNA damaging agent [1]: modest, but detectable sensitization

Molecule: O=[N+]([O-])c1cc([N+](=O)[O-])c(/C=C/c2ccc(Cl)c(Cl)c2)cc1/C=C/c1ccc(Cl)c(Cl)c1 [NSC-636819]
- doses at which the increase in DSBs was observed ([2]; HCT116 IDH-WT cells): 12.5 to 50 µM
- DSBs (comet tail moment) in HCT116 IDH-WT cells ([2]; NSC-636819 treatment, HCT116 IDH-WT): dose-dependent increase in elevated DSBs, which approached the levels seen in untreated HCT116 IDH-mutant cells
- comet tail moments in HCT116 IDH-mutant cells ([2]; NSC-636819 treatment, HCT116 IDH-mutant): did not further increase comet tail moments

Molecule: Cn1ncnc1[C@H]1c2n[nH]c(=O)c3cc(F)cc(c23)N[C@@H]1c1ccc(F)cc1 [BMN-673]
- decrease in IC50 in R132H mutants versus wild-type ([1]; FIG. 2A, BMN-673 dose response, 96 hours after addition of drug): four-fold decrease in IC50
- increase in sensitivity of IDH1-R132H versus wild-type astrocytes ([3]; at 10 nM BMN-673): ten-fold increase in sensitivity
- decrease in cell survival of IDH1-mutant compared to WT cells ([3]; clonogenic survival, dose of 10 nM): 10 fold
- difference in IC50 between wild-type and IDH1-R132H heterozygous HCT116 ([4]; FIG. 5D): nearly eight-fold difference in IC50
- difference in cell viability between wild-type and IDH1-R132H heterozygous HCT116 [5]: roughly ten-fold difference in cell viability
- tumor growth in IDH1-WT tumors ([6]; HCT116 IDH1-WT xenografts): minimal effects
- tumor growth in IDH1-mutant tumors ([6]; HCT116 IDH1-mutant xenografts): significant growth delay

Molecule: N.N.[Cl][Pt][Cl] [cisplatin]
- synergy between BMN-673 and cisplatin ([1]; FIG. 2F, 8 nM BMN-673 and 1 cisplatin, IDH1 wild-type vs IDH1-R132H astrocytes): IDH1-R132H-dependent synergy
- sensitization of IDH1-mutant versus WT cells to single DNA damaging agent [1]: modest, but detectable sensitization
- synergistic interaction with BMN-673 in IDH1-mutant tumor cells ([1]; FIGS. 2E-F, 6B (cisplatin, astrocytes), FIG. 6C (TMZ, IDH1-R132H HCT116), Combenefit analysis): dramatic synergistic interaction

Molecule: (2R)-octyl-α-hydroxyglutarate [octyl-(R)-2-hydroxyglutarate]
- suppression of HR ([7]; FIG. 1I): comparable in magnitude to RAD51 or BRCA2 suppression by siRNA knockdown

Molecule: O=C(O)CCC(O)C(=O)O (stereo not drawn) [2-HG, 2-hydroxyglutarate]
- PARP inhibitor (BMN-673) sensitivity of WT cells after 2-HG treatment ([4]; FIGS. 2C-2D, wild-type HCT116, octyl-(R)-2HG with 300 nM BMN-673, or 900 μM octyl-(R)-2HG with BMN-673 dose response): recapitulate the enhanced PARP inhibitor sensitivity seen in IDH1-mutant cells
- ability of treatment alone to reproduce the IDH1-associated HR defect ([7]; FIG. 1I, FIGS. 3H-3I, wild-type cells): recapitulate the IDH1-associated HR defect
- suppression of HR ([7]; FIG. 1I): dramatic, and it approached levels seen with siRNAs targeting two key HR genes, RAD51 and BRCA2

Molecule: CCc1c2c(nc3ccc(OC(=O)N4CCC(N5CCCCC5)CC4)cc13)-c1cc3c(c(=O)n1C2)COC(=O)[C@]3(O)CC [irinotecan]
- sensitization of IDH1-mutant versus WT cells to single DNA damaging agent [1]: modest, but detectable sensitization

Molecule: COC(=O)CNC(=O)C(=O)OC [DMOG, dimethyloxalylglycine]
- HR activity ([7]; 24 h pretreatment with DMOG): dose dependent HR suppression
- baseline DSBs [8]: dose dependent increase in baseline DSBs
